Test results reported in PMC5847527, “Identification of a novel 2-oxindole fluorinated derivative as in vivo antitumor agent for prostate cancer acting via AMPK activation” (Scientific Reports, 2018).

Legend:
Assay type in all cases: cell-based, human
PC-3 and LNCaP cells = experiment: MTT cell viability in PC-3 and LNCaP cells under AMPK inhibition or knocking down; conditions: α1AMPK-selective siRNA
Procedure: Figure 5 AMPK activation by compound 8c in prostate cancer cells. (A) PC-3 and LNCaP cells were treated with vehicle, 25 µM compound 8c, 25 µM compound 8c + 5 μM Dorsomorphin (8c + D) or 5 μM Dorsomorphin (D), for 1 hour or 24 hours and levels of the phosphorylated AMPK (pAMPK), phosphorylated ACC (pACC), phosphorylated Raptor (pRaptor) forms and HIF1α were determined by Western blot. Upper panel, representative Western blot of three different experiments. β-tubulin (β-Tub) serves as a loading control. Lower panel, densitometric analyses of bands represented as the mean of the ratio pAMPK/AMPK or pACC/ACC. (B) Cell viability monitored by MTT assay in PC-3 and LNCaP cells treated with vehicle, 25 µM and 50 μM compound 8c alone or in the presence of 5 μM Dorsomorphin or transfected with control siRNA (siC) or α1AMPK-selective siRNA (siAMPK). (C) LNCaP cells were treated with vehicle, 25 µM compound 8c, 25 µM compound 8c + 5 μM Dorsomorphin (8c + D) or 5 μM Dorsomorphin (D), for 24 hours and levels of Androgen Receptor (AR), Prostate specific antigen (PSA) and Prostate specific membrane antigen (PSMA) were determined by Western blot.Values were normalized with the control and represent the mean ± SD of at least three independent experiments. *p < 0.05 and **p < 0.01 compared to control and ^#p < 0.05 and ^##p < 0.01 compared with 8c-treated group by the Student’s t-test. […]

PC-3 cells = experiment: Cell cycle analysis by flow cytometry (Propidium Iodide), PC-3; conditions: PC-3, 24 h, 25 μM and 50 μM tested (concentration of this value not stated)
Procedure: (§1) For that, we treated PC-3 and LNCaP cells with 25 μM and 50 μM of compound 8c for 24 h and performed cell cycle analysis by flow cytometry using Propidium Iodide (PI). […] It is worthy to note that when PC-3 cells were treated with compound 8c, 80% of cells were in subG0 phase (Fig. 4A).
(§2) Figure 4 Cell Cycle analysis in 8c-treated prostate cancer cells. (A) PC-3 and LNCaP cells were treated with compound 8c for 24 hours and cell cycle analysis was analyzed by flow cytometry using Propidium Iodide (PI). Percentage of cells in subG0, G1, S, and G2/M phases is indicated in the histogram. (B) Levels of Cyclin D1, p-p53, p53, p21 and cleaved Caspase 3 (17 kDa fragment) were determined by Western blot. Upper panel, representative Western blot of two different experiments. β-tubulin (β-Tub) serves as a loading control. Lower panel, the densitometric analyses of bands represented as the mean ± SD of the two different experiments. *p < 0.05 and **p < 0.01 compared with the control group by the Student’s t-test.
(§3) Flow cytometry was used to detect the distribution of cell cycle. After being cultivated with the treatment, 10^5 cells in 35 mm culture dish were harvested in 0.35% trypsin, collected and fixed with 70% cold ethanol at 4 °C for 1 h. Then, cells were centrifuged at 1500 g for 5 min and incubated in 0.5 ml PBS containing 0.1 mg/ml RNase for 30 min at 37 °C. […]

LNCaP cells = experiment: Cell cycle analysis by flow cytometry (Propidium Iodide), LNCaP; conditions: 24 h, 25 μM and 50 μM
Procedure: as §1, §2, §3

O=C1Nc2ccccc2C1(F)Cc1ccc(-c2ccccc2)o1 (stereo not drawn) [Compound 8c, 3-fluoro-3-((5-phenylfuran-2-yl)methyl)indolin-2-one]
cell death with AMPK silencing by specific siRNA (PC-3 and LNCaP cells): prevented 8c-induced cell death | cells in subG0 phase (PC-3 cells): 80% | subG0 cells (LNCaP cells): increase in subG0 cells
